# Where two headings read alike, the source gives them in different places.
# What was measured:
# [1] = Average daily gains and feed conversion of gilts during 42-day per os exposure; assay type: in vivo
# Method: The animals were divided into an experimental group (E, n = 18) and a control group (C, n = 21). Group E animals were orally administered ZEN at 40 μg/kg BW. Group C pigs were fed a placebo. The animals were fed complete diets in a restricted feeding regimen (Table 1). The daily dose of ZEN (40 µg/kg BW) was administered to each animal individually, which corresponds to exposure to 957–1014 µg ZEN/kg of a complete diet, depending on daily feed intake. Zearalenone was biosynthesized, purified and standardized by the Department of Chemistry of the Poznań University of Life Sciences. The experiment covered a period of 42 days. The mycotoxin was administered per os daily, in gelatine capsules before the morning feeding. The ZEN dose was adjusted to the body weight of the experimental animals. The mycotoxin was administered in capsules to prevent problems associated with uneven feed intake. Mycotoxin samples were diluted in 300 μL of 96% ethyl alcohol (96% ethyl alcohol, SWW 2442-90, Polskie Odczynniki Chemiczne SA, Gliwice, Poland) to the required dose level (based on body weight). Final solutions were stored at room temperature for 12 h to evaporate the solvent. The animals were weighed every 7 days to update mycotoxin doses for each gilt. Three animals from the experimental group and the control group each were sacrificed on Days 1, 7, 14, 21, 28, 35 and 42 (a total of 6 gilts in each week of exposure), excluding day 1, when only 3 control group animals were scarified. Every week, tissue samples were collected from the porcine gastrointestinal tract (duodenum, first and middle sections, jejunum, ileum, cecum, ascending colon, transverse colon, descending colon, middle section, and the liver, left lobe). Tissue samples were collected from the whole intestinal cross-sections.
# [2] = in vitro studies, cited from earlier work
# [3] = Group E, ZEN 40 μg/kg BW daily per os, throughout the experiment (42 days)
structure (smiles),measurement,setting,value
"C[C@H]1CCCC(=O)CCC/C=C/c2cc(O)cc(O)c2C(=O)O1 [ZEN, zearalenone]",differences in average daily gains between groups,[1]; Group E (ZEN 40 μg/kg BW daily per os) vs Group C (placebo),No significant differences
same,average daily gains,[1]; [3],602 g
same,feed per kg of BW gain,[1]; [3],2.61 kg feed per kg of BW gain
same,ingested ZEN absorbed in the small intestine,[2]; ref 12,55%
same,ingested ZEN absorbed in the small intestine,[2]; ref 26,51%

# Source: publication PMC4549746, “Zearalenone in the Intestinal Tissues of Immature Gilts Exposed per os to Mycotoxins” (Toxins, 2015)
